Experimental data as given in patent US12421500B2, “Hepato-biliary-pancreatic tissues and methods of making same” (CHILDREN'S HOSPITAL MEDICAL CENTER, priority 2018, dated 2025).
Entries after “also recorded” stand apart in the source; their conditions may differ.

Experiments:
[1] = system: Cholecystokinin A Receptor (CCKAR) expressing organoids; assay: CCK exposure of organoids: ductal response and amylase ELISA; type: cell-based, human
Description: FIG. 3A-3O. Modeling human hepato-biliary-pancreatic organogenesis. 3A. Illustration of dissection of PROX1 positive region from HBP organoids and image of before/after dissection. 3B. Optimization of cultured system with 1) Floating, 2) Embedded into Matrigel™, 3) Embedded into Matrigel™ and cultured with Transwell™ from D13, 4). Dissected, embedded into Matrigel™, and cultured with Transwell™ from D13. […] 3C. Morphogenesis of boundary organoids through 2 days from Day 13. 3D. Morphogenetical change of PROX1 dissected tissue from boundary organoids through 30 days of air-liquid interface cultured system. 3E. Stereomicroscopic image of Day 37 organoids. 3F. Boundary organoid has tdTomato expressing hepatobiliary tissues branched out for putative pancreatic domains, similar to cultured mouse E10.5 derived hepato-biliary-pancreas. […]
To determine whether longer-term culture can produce more mature tissue, organoids were cultured until D90. […] Furthermore, the immunofluorescent staining detected the expression of the pancreas marker PDX1 and NGN3, the liver marker PROX1, and the bile duct markers CK19 and SOX9 in the organoids (FIG. 3H). […] Given the Cholecystokinin A Receptor (CCKAR) expression in the organoids (FIG. 3N), organoids were exposed to CCK and the pancreatic secretory function was analyzed with an amylase Enzyme-linked immune sorbent assay (ELISA). […]

[2] = system: bAP organoids; assay: bAP organoids exposed to RA signaling agonists or antagonists, gene expression by qPCR; type: cell-based, human; settings: bAP organoids exposed at D9; Day 11, three days culture; FIG. 2G
Description: FIG. 2A-2I. Self-emergence of hepato-biliary-pancreatic progenitors from boundary organoid without inductive factors. 2A. Generating PROX1-tdTomato reporter line by CRISPR-Cas9 gene editing system. 2B. PROX1-tdTomato expression in established PROX1 reporter iPSCs from Day 9 to Day 11. 2C. PROX1-tdTomato positive area in each organoid. AP, AA and PP combinations were evaluated. The tdTomato expression was confirmed in the cell membrane of boundary organoids in AP combination. 2D. Hepatic invagination in mouse liver primordium explant (Prox1::GFP) and human iPSC-derived boundary organoids (PROX1::m-tdTomato). 2E. The immunostaining of PROX1 in E8.75 mice embryo and boundary organoids at Day 13. 2F. Transcriptomic characterization of boundary organoids. Anterior, boundary, and posterior domains were dissected, separated, and applied for RNA sequencing. […] Heatmap was separated into 8 detailed groups (C1-C8) by unbiased hierarchical clustering. […] 2G. Gene expression of HHEX, PDX1, SOX2, and CDX2 at Day 11 with three days culture of retinoic acid, BMS493, R-75251, or WIN18446. 2H. […]
In support, Applicant exposed the bAP organoids at D9 to various RA signaling agonists or antagonists. […] To implicate the cellular source for RA in the model system, RA signaling related genes were assessed in the isolated epithelial and non-epithelial cell populations. […]

[3] = system: posterior gut spheroid; assay: BMS493 pretreatment of anterior or posterior gut spheroids before fusion, HHEX and PDX1 immunostaining; type: cell-based, human; settings: only posterior gut spheroid exposed prior to fusion; vs untreated control; FIG. 10
Description: FIG. 10. Abolishment of HHEX and PDX1 induction in posterior gut specific BMS493. BMS493 pretreated anterior or posterior gut spheroids were fused to induce HBP anlage formation. […] Scale bar: 200 μm
(§1) In support, Applicant exposed the bAP organoids at D9 to various RA signaling agonists or antagonists. […] Lateral plate mesoderm population acts as an activator for RA signaling during the specification in vivo^22-24. To implicate the cellular source for RA in the model system, RA signaling related genes were assessed in the isolated epithelial and non-epithelial cell populations. […] Complementing this, exposing only the posterior gut spheroid, and not the anterior gut spheroid to BMS493 prior to fusion suppressed the protein-level induction of HHEX and PDX1 (FIG. 10). […] Taken together, HBP progenitor self-specification derived from posterior region in boundary organoid model system is regulated by RA signals, and may be supported by co-differentiating anterior non-epithelial, most likely mesenchymal, lineages.
For whole mount immunohistochemical staining, spheroid and organoid were collected from Matrigel™ and removed remaining Matrigel™ by treating with Cell recovery solution at 4° C. for 30 min. The tissues were washed by PBS and were fixed in 4% PFA at 4° C. for overnight. […]

[4] = system: E9.0 PROX1::GFP reporter mouse embryo; assay: E9.0 PROX1::GFP reporter mouse whole embryo culture with BMS493; settings: after 2 days, vs DMSO control, FIGS. 11A and 11B
Description: FIGS. 11A and 11B. PROX1 inhibition by BMS493 exposure with E9.0 PROX1::GFP reporter mouse embryo explant culture. […] Retinoic acid receptors antagonist BMS493 treated group was compared with control (adding DMSO) group. 11A. Bright field image and GFP fluorescent image for embryo after culture. 11B. The area of GFP expressing parts was quantified from GFP image in (a). Scale bar: 1 mm
as §1
The Rotator-type Bottle Culture System (Ikemoto Scientific Technology Co., Ltd) was used for whole embryo culture. […]

Row | amylase secretion in supernatants (ELISA) ([1]; CCK treated vs untreated controls, 3 days-CCK, FIG. 3P) | ductal structures response to CCK ([1]; on the following day, FIG. 3O) | Compound | gene expression of HHEX [2] | gene expression of PDX1 [2] | protein-level induction of HHEX and PDX1 at boundary [3] | PROX1 expressing cells (GFP area) [4]
1 | increased | constricted | cholecystokinin [CCK] | – | – | – | –
2 | – | – | CC1(C)CC=C(C#Cc2ccccc2)c2cc(/C=C/c3ccc(C(=O)O)cc3)ccc21 [BMS493] | strongly suppressed | strongly suppressed | suppressed; also recorded: inhibited | significant inhibition
